Assay in all cases: growth of human tumour cells (NCI), 48 h
Experiment [1] has as its system SNB-19 CNS.
Experiment [2] relates to U251 CNS.
In experiment [3] the test system is MDA-MB-435.
Experiment [4] concerns HL-60(TB) leukemia.
Experiment [5] deals with HT29 colon.
Experiment [6] relates to UACC-257 melanoma.
Experiment [7] deals with HCC-2998 colon.
Experiment [8] deals with ACHN renal.
Experiment [9] relates to EKVX NSCLC.
In experiment [10] the test system is IGROV1 ovarian.

Values joined by “and” are separate entries in the source; they are usually repeats but may differ in a detail not shown here. Equal values may be shown once.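 Interpolation was linear, between the two tested concentrations surrounding the appropriate level; five concentrations were tested over 48 hours in 96-well plates. GI50 is the concentration that inhibits growth by half. TGI: total growth inhibition.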

Turning to `O=C1c2ccccc2-c2c1c1ccc([N+](=O)[O-])cc1c(=O)n2CCCBr`, the GI50 in experiment [1], in experiment [2], in [3], in [4], in [5] and in experiment [6] was over 100 µM in each case. Also, the GI50 in experiment [7], in [8], in [9] and in experiment [10] was over 100 µM each time. Moreover, the TGI in experiment [1], in [2], in experiment [3], in experiment [4], in experiment [5] and in experiment [6] was over 100 µM in each case. For the same compound, the TGI in experiment [7], in [8], in experiment [9] and in experiment [10] was over 100 µM each time.

On to `Cc1ccc(-c2cc(-c3ccc(C)cc3)nc(NCCNc3ccnc4cc(Cl)ccc34)n2)cc1`, for which the GI50 was 1.89 µM in experiment [1]; 1.72 µM in experiment [2]; 1.77 µM in experiment [3]; 2 µM in [4]; 1.74 µM in experiment [5]; 1.98 µM in experiment [6]. In addition, the GI50 is 1.76 µM in [7], 1.68 µM in [8], 1.69 µM in experiment [9] and 1.52 µM in experiment [10]. The TGI stood at 3.76 µM in experiment [1]; 3.36 µM in experiment [2]; 3.35 µM in experiment [3]; 4.15 µM in experiment [4]; 3.37 µM in [5]; 4.07 µM in experiment [6]. The TGI in experiment [7] amounted to 3.28 µM; in [8], 3.13 µM; in experiment [9] it was 3.52 µM; in [10], 3.16 µM.

For `COc1cc2nc(N3CCCC3)nc(NCC3CCCCC3)c2cc1OC`, the GI50 in experiment [1] was 1.59 µM; in [2], 1.21 µM; in experiment [3] it was 1.11 µM; in experiment [4], 0.505 µM; in experiment [5], 0.435 µM; in [6], 0.364 µM. The GI50 in experiment [7] was 0.444 µM; in experiment [8] it was 1.44 µM; in experiment [9], 1.45 µM; in experiment [10], 1.48 µM. The TGI in [1] came out at 2.99 µM; in [2], 2.64 µM; in [3], 2.33 µM; in [4], 2.21 µM; in [5], 1.69 µM; in experiment [6] it was 1.36 µM. Also, the TGI in experiment [7] stood at 1.62 µM; in [8] it was 2.75 µM; in [9], 2.91 µM; in experiment [10] it was 3.06 µM.

Regarding `CCCn1c(C)nc2c1C(=O)c1ccccc1C2=O`, the GI50 in experiment [1] was 53.3 µM; in experiment [2] it was 22.4 µM; in [3], 17.2 µM; in experiment [4] it was 9.61 µM; in [5], 25.8 µM; in experiment [6], 16.5 µM. The GI50 is 50.2 µM in experiment [7], 37.7 µM in experiment [8], 18.9 µM in [9] and 14.5 µM in experiment [10]. Also, the TGI in experiment [1] is over 100 µM; in experiment [2], over 100 µM; in [3] it was 32.9 µM; in experiment [4], 45.8 µM; in experiment [5], 71.6 µM; in [6], 49 µM. In addition, the TGI in [7] was over 100 µM; in experiment [8], over 100 µM; in experiment [9], 70.8 µM; in experiment [10] it was 42.1 µM.

Consider `C=CC(=O)Nc1cccc(C)c1Nc1cc(-c2cccnc2Cc2c(C)c(OC)cc(OC)c2C)ncn1`, for which the GI50 in experiment [1] was 7.04 µM; in experiment [2], 6.26 µM; in experiment [3], 12.1 µM; in [4] it was 5.22 µM; in experiment [5], 20.3 µM; in experiment [6], 23.7 µM. Also, the GI50 in [7] is 16 µM; in experiment [8] it was 17.3 µM; in experiment [9] it was 28.8 µM; in [10], 14.2 µM. Also, the TGI was 43.1 µM in experiment [1]; 30 µM in [2]; 31.3 µM in [3]; 48.9 µM in experiment [4]; over 100 µM in [5]; over 100 µM in experiment [6]. Further, the TGI in experiment [7] is 30.6 µM; in [8], over 100 µM; in [9] it was over 100 µM; in experiment [10], 53.9 µM.

As to `O=C(C1CCCCC1)[C@@H]1[C@]2(C(=O)NC3CCCCC32)[C@@H]2CCCN2[C@@]12C(=O)NC1CCC(Cl)CC12` (stereo not given in full), the GI50 was 148 µM in [1]; 148 µM in experiment [2]; 112 µM in experiment [3]; 35.3 µM in [4]; 64.4 µM in [5]; 135 µM in [6]. In addition, the GI50 is 135 µM in experiment [7], 103 µM in experiment [8], 69.9 µM in experiment [9] and 53.2 µM in [10]. Besides, the TGI was determined as 299 µM in experiment [1]; 316 µM in experiment [2]; 245 µM in [3]; 176 µM in experiment [4]; 199 µM in experiment [5]; 288 µM in experiment [6]. In addition, the TGI in [7] turned out to be 293 µM; in [8] it was 222 µM; in experiment [9], 217 µM; in experiment [10], 202 µM.

On to `Cc1cc(N/N=C/c2nc(-c3ccc(Br)cc3)oc2C)c2cc(Cl)ccc2n1`, for which the GI50 in experiment [1], in experiment [2], in experiment [3], in [4], in [5] and in [6] was over 100 µM throughout. In addition, the GI50 in experiment [7], in experiment [8], in [9] and in experiment [10] was over 100 µM throughout. For the same compound, the TGI in [1], in experiment [2], in [3], in [4], in [5] and in experiment [6] was over 100 µM in each case. Further, the TGI in [7], in experiment [8], in experiment [9] and in experiment [10] was over 100 µM each time.

On to `Cc1ccc(NC(=O)/C=C/c2ccccc2)c(C(N)=O)c1`, for which the GI50 in experiment [1] is 5.81 µM; in experiment [2] it was 3.8 µM; in experiment [3], 0.526 µM; in [4] it was 1.75 µM; in experiment [5], 2.36 µM; in experiment [6], 22.5 µM. The GI50 in [7] was 5.38 µM; in experiment [8] it was 11 µM; in experiment [9], 4.78 µM; in [10], 4.89 µM. Further, the TGI in experiment [1] is over 100 µM; in experiment [2], over 100 µM; in [3], 2.44 µM; in experiment [4] it was 6.7 µM; in experiment [5], 30.8 µM; in experiment [6], over 95.3 µM. Also, the TGI in experiment [7] is 42.5 µM; in experiment [8] it was over 96.6 µM; in experiment [9], over 100 µM; in experiment [10] it was over 56.1 µM.

For `C=C1CC[C@@H]2[C@](C)(COC(C)=O)[C@@H](O)CC[C@@]2(C)[C@@H]1COc1ccc2ccc(=O)oc2c1`, the GI50 in experiment [1] was over 100 µM; in experiment [2], 61.2 µM; in [3], over 100 µM; in experiment [4], over 100 µM; in experiment [5] it was over 100 µM; in experiment [6] it was over 100 µM. For the same compound, the GI50 in experiment [7], in [8], in [9] and in experiment [10] was over 100 µM in each case. The TGI in [1], in experiment [2], in experiment [3], in experiment [4], in experiment [5] and in experiment [6] was over 100 µM each time. Besides, the TGI in experiment [7], in [8], in experiment [9] and in experiment [10] was over 100 µM throughout.

`Cc1ccc(C(=O)Nc2ccc(CN3CCN(C)CC3)c(C(F)(F)F)c2)cc1C#Cc1cnc2cccnn12`: the GI50 is 0.973 µM and 2.7 µM in experiment [1]; 0.473 µM and 1.22 µM in experiment [2]; 0.26 µM and 0.753 µM in experiment [3]; 0.422 µM and 0.44 µM in [4]; 0.3 µM and 0.469 µM in [5]; 0.536 µM and 1.56 µM in [6]. The GI50 was 0.579 µM and 1.38 µM in experiment [7]; 0.191 µM and 0.322 µM in experiment [8]; 0.635 µM and 1.79 µM in experiment [9]; 0.272 µM and 0.269 µM in experiment [10]. In addition, the TGI in experiment [1] was 2.28 µM and 4.67 µM; in experiment [2] it was 1.68 µM and 3.94 µM; in [3], 1.23 µM and 3.62 µM; in experiment [4], 1.58 µM and 3.88 µM; in experiment [5], 1.29 µM and 3.42 µM; in [6], 2.04 µM and 4.39 µM. Also, the TGI in experiment [7] is 1.86 µM and 4.05 µM; in experiment [8], 1.09 µM and 3.24 µM; in [9], 2.27 µM and 5.14 µM; in [10] it was 1.28 µM and 1.81 µM.

With `COc1ccc(C(OCC2OC(n3ccc(NC(=O)c4ccccc4)nc3=O)C(O)C2O)(c2ccccc2)c2ccccc2)cc1` (stereo not given), the TGI in [1] stood at 9 µM; in experiment [2], 3.48 µM; in [3], 5.73 µM; in experiment [4] it was 4.36 µM; in [5], 3.04 µM; in [6], 21.1 µM. Besides, the TGI amounted to 12.6 µM in experiment [7], 7.59 µM in experiment [8], 6.1 µM in experiment [9] and 3.86 µM in experiment [10].

Consider `CC(C)(C)c1ccc(OCCCCCCN2CCNCC2)cc1`, for which the GI50 was 8.06 µM in experiment [1]; 3.32 µM in [2]; 3.17 µM in [3]; 1.98 µM in experiment [4]; 2.64 µM in experiment [5]; 10.5 µM in experiment [6]. The GI50 was 2.38 µM in [7], 5.01 µM in [8], 10.2 µM in experiment [9] and 6.34 µM in [10]. Further, the TGI in experiment [1] was 24.4 µM; in experiment [2], 13.2 µM; in [3], 11.9 µM; in [4], 4.32 µM; in experiment [5], 10.5 µM; in experiment [6] it was 22.9 µM. Further, the TGI in experiment [7] is 4.62 µM; in experiment [8], 17.5 µM; in experiment [9], 24.2 µM; in [10] it was 22.6 µM.

Turning to `O=C(N/N=C/c1ccc2c(c1)CCC2)c1ccccc1O`, the TGI in [1] is 44.7 µM; in [2] it was 33.7 µM; in experiment [3] it was 51.9 µM; in [4], over 100 µM; in experiment [5] it was over 100 µM; in experiment [6] it was 95.1 µM. The TGI in [7] is 28.3 µM; in experiment [8], 34.8 µM; in experiment [9] it was 92.2 µM; in experiment [10], 55.9 µM.

For `CCN=C1C=CC(=C(c2ccc(N)cc2)c2ccc(N(CC)CC)c(C)c2)C=C1`, the GI50 is 0.225 µM in experiment [1]; 0.124 µM in experiment [2]; 0.286 µM in [3]; 0.304 µM in experiment [4]; 0.271 µM in [5]; 0.324 µM in [6]. For the same compound, the GI50 in experiment [7] is 0.48 µM; in experiment [8], 0.422 µM; in [9], 0.266 µM; in experiment [10], 0.537 µM. Besides, the TGI amounted to 1.62 µM in [1]; 1.59 µM in experiment [2]; 0.884 µM in experiment [3]; 0.841 µM in experiment [4]; 1.2 µM in [5]; 1.69 µM in experiment [6]. Also, the TGI turned out to be 1.65 µM in experiment [7], 2.66 µM in experiment [8], 11.1 µM in [9] and 4.01 µM in experiment [10].

In the case of `COc1ccc(-c2cc(-c3ccccc3)nc(SCCCC(=O)NO)n2)cc1`, the GI50 in experiment [1] was 2.19 µM; in experiment [2], 1.12 µM; in [3], 0.995 µM; in experiment [4], 1.18 µM; in experiment [5] it was 1.64 µM; in experiment [6], 1.6 µM. Moreover, the GI50 in experiment [7] was 1.7 µM; in experiment [8], 0.356 µM; in [9] it was 1.66 µM; in experiment [10], 1.11 µM. For the same compound, the TGI in [1] was 9.27 µM; in experiment [2], 4.22 µM; in experiment [3] it was 3.11 µM; in [4], 7 µM; in experiment [5], 10.9 µM; in [6], 8.34 µM. The TGI in experiment [7] came to 3.81 µM; in experiment [8] it was 1.46 µM; in experiment [9], 8.07 µM; in experiment [10] it was 3.83 µM.
